Test results taken from ChEMBL document CHEMBL1201862, “PubChem BioAssay data set” (2004).
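Dose response: 5 concentrations. Exposure: 48 h. Format: 96-well plates. Endpoint: linear interpolation; highest concentration if not reached. Here, GI50 denotes the concentration required for 50% inhibition of growth.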 The source made the active and inactive calls. No stated cut-off is given here; in the data, active = GI50 up to about 1.1 µM and inactive = higher.

Key:
Test in all cases: growth of human tumour cells (NCI), 48 h
UO-31 = system: UO-31
HT-29 = system: HT-29
SK-MEL-28 = system: SK-MEL-28
A549 = system: A549
K562 = system: K562
Malme-3M = system: Malme-3M
HCT-116 = system: HCT-116
786-0 = system: 786-0
SN12C = system: SN12C
RPMI-8226 = system: RPMI-8226
DMS-273 = system: DMS-273
SW-620 = system: SW-620
COLO 205 = system: COLO 205
KM-20L2 = system: KM-20L2
LOX IMVI = system: LOX IMVI
SK-MEL-2 = system: SK-MEL-2
IGROV-1 = system: IGROV-1
M14 = system: M14
SF-268 = system: SF-268
SNB-78 = system: SNB-78
NCI-H23 = system: NCI-H23
NCI-H460 = system: NCI-H460
OVCAR-5 = system: OVCAR-5
UACC-62 = system: UACC-62
SK-OV-3 = system: SK-OV-3
HCC 2998 = system: HCC 2998
SNB-19 = system: SNB-19
HOP-18 = system: HOP-18
DLD-1 = system: DLD-1
OVCAR-3 = system: OVCAR-3
CCRF-CEM = system: CCRF-CEM
NCI-H226 = system: NCI-H226
OVCAR-8 = system: OVCAR-8
U-251 = system: U-251
SF-295 = system: SF-295
MOLT-4 = system: MOLT-4
ACHN = system: ACHN
XF498 = system: XF498
HOP-62 = system: HOP-62
RXF 393 = system: RXF 393
SK-MEL-5 = system: SK-MEL-5
LXFL 529 = system: LXFL 529
KM12 = system: KM12
OVCAR-4 = system: OVCAR-4
CAKI-1 = system: CAKI-1
EKVX = system: EKVX
UACC-257 = system: UACC-257
HCT-15 = system: HCT-15
TK-10 = system: TK-10
SNB-75 = system: SNB-75
NCI-H522 = system: NCI-H522
DMS-114 = system: DMS-114
HL-60 = system: HL-60
A498 = system: A498
SF-539 = system: SF-539
SR = system: SR
M19-MEL = system: M19-MEL
HOP-92 = system: HOP-92

Q: What does the source list for `O=C1C(Cl)C(c2ccc([N+](=O)[O-])cc2)N1n1cnc2ccccc2c1=O` (stereo unspecified)?
A: GI50 (UO-31): 71 µM (inactive); GI50 (HT-29): > 100 µM (inactive); GI50 (SK-MEL-28): 24.1 µM (inactive); GI50 (A549): 30.7 µM (inactive); GI50 (K562): 36.9 µM (inactive); GI50 (Malme-3M): > 100 µM (inactive); GI50 (HCT-116): 43.9 µM (inactive); GI50 (786-0): 20.7 µM (inactive); GI50 (SN12C): 42.3 µM (inactive); GI50 (RPMI-8226): > 10 µM (inactive); GI50 (DMS-273): 34.5 µM (inactive); GI50 (SW-620): 97.7 µM (inactive); GI50 (COLO 205): > 100 µM (inactive); GI50 (KM-20L2): > 100 µM (inactive); GI50 (LOX IMVI): 87.1 µM (inactive); GI50 (SK-MEL-2): > 100 µM (inactive); GI50 (IGROV-1): 75.5 µM (inactive); GI50 (M14): 32.3 µM (inactive); GI50 (SF-268): 28.6 µM (inactive); GI50 (SNB-78): 24.1 µM (inactive); GI50 (NCI-H23): 32.6 µM (inactive); GI50 (NCI-H460): 17.2 µM (inactive); GI50 (OVCAR-5): > 100 µM (inactive); GI50 (UACC-62): 70.5 µM (inactive); GI50 (SK-OV-3): 9.75 µM (inactive); GI50 (HCC 2998): 73.6 µM (inactive); GI50 (SNB-19): 73.3 µM (inactive); GI50 (HOP-18): 40.6 µM (inactive); GI50 (DLD-1): 53.1 µM (inactive); GI50 (OVCAR-3): 52.4 µM (inactive); GI50 (CCRF-CEM): 17.6 µM (inactive); GI50 (NCI-H226): 51.6 µM (inactive); GI50 (OVCAR-8): 19.1 µM (inactive); GI50 (U-251): 47.8 µM (inactive); GI50 (SF-295): 17.6 µM (inactive); GI50 (MOLT-4): 49.1 µM (inactive); GI50 (ACHN): 61.5 µM (inactive); GI50 (XF498): 64.9 µM (inactive); GI50 (HOP-62): 34.5 µM (inactive); GI50 (RXF 393): 23.6 µM (inactive); GI50 (SK-MEL-5): 57 µM (inactive); GI50 (LXFL 529): 22.7 µM (inactive); GI50 (KM12): 89.9 µM (inactive); GI50 (OVCAR-4): 5.64 µM (inactive); GI50 (CAKI-1): 60.1 µM (inactive); GI50 (EKVX): 12.7 µM (inactive); GI50 (UACC-257): > 100 µM (inactive); GI50 (HCT-15): > 100 µM; GI50 (TK-10): 25.3 µM (inactive); GI50 (SNB-75): 13.9 µM (inactive); GI50 (NCI-H522): 49.8 µM (inactive); GI50 (DMS-114): 20.2 µM (inactive)

Q: Which results are given for `Nc1nncc2c1ccn2C1OC(CO)C(O)C1O` (stereo unspecified)?
A: GI50 (UO-31): > 100 µM (inactive); GI50 (HT-29): > 100 µM (inactive); GI50 (SK-MEL-28): 82.8 µM (inactive); GI50 (A549): > 100 µM (inactive); GI50 (K562): > 100 µM (inactive); GI50 (Malme-3M): > 100 µM (inactive); GI50 (HCT-116): > 100 µM (inactive); GI50 (SN12C): > 100 µM (inactive); GI50 (RPMI-8226): > 100 µM (inactive); GI50 (HL-60): > 100 µM (inactive); GI50 (DMS-273): > 100 µM (inactive); GI50 (SW-620): > 100 µM (inactive); GI50 (COLO 205): > 100 µM (inactive); GI50 (KM-20L2): > 100 µM (inactive); GI50 (LOX IMVI): > 100 µM (inactive); GI50 (SK-MEL-2): > 100 µM (inactive); GI50 (IGROV-1): > 100 µM (inactive); GI50 (M14): > 100 µM (inactive); GI50 (SF-268): > 100 µM (inactive); GI50 (SNB-78): > 100 µM (inactive); GI50 (NCI-H23): > 100 µM (inactive); GI50 (A498): > 100 µM (inactive); GI50 (NCI-H460): > 100 µM (inactive); GI50 (SF-539): > 100 µM (inactive); GI50 (OVCAR-5): > 100 µM (inactive); GI50 (UACC-62): > 100 µM (inactive); GI50 (SK-OV-3): > 100 µM (inactive); GI50 (HCC 2998): > 100 µM (inactive); GI50 (SNB-19): > 100 µM (inactive); GI50 (HOP-18): > 100 µM (inactive); GI50 (DLD-1): > 100 µM (inactive); GI50 (OVCAR-3): > 100 µM (inactive); GI50 (CCRF-CEM): > 100 µM (inactive); GI50 (NCI-H226): > 100 µM (inactive); GI50 (OVCAR-8): > 100 µM (inactive); GI50 (U-251): > 100 µM (inactive); GI50 (SF-295): > 100 µM (inactive); GI50 (MOLT-4): > 100 µM (inactive); GI50 (SR): > 100 µM (inactive); GI50 (ACHN): > 100 µM (inactive); GI50 (HOP-62): > 100 µM (inactive); GI50 (RXF 393): > 100 µM (inactive); GI50 (M19-MEL): > 100 µM (inactive); GI50 (SK-MEL-5): > 100 µM (inactive); GI50 (LXFL 529): > 100 µM (inactive); GI50 (KM12): > 100 µM (inactive); GI50 (OVCAR-4): > 100 µM (inactive); GI50 (EKVX): > 100 µM (inactive); GI50 (UACC-257): > 100 µM (inactive); GI50 (HOP-92): > 100 µM (inactive); GI50 (HCT-15): > 100 µM; GI50 (TK-10): > 100 µM (inactive); GI50 (SNB-75): > 100 µM (inactive); GI50 (DMS-114): > 100 µM (inactive)
